Here are results for two compounds from US20170216244A1, “METHODS FOR TREATING DIABETIC NEPHROPATHY” (YALE UNIVERSITY, priority 2014, published 2017).

The conditions of data set [1]: purified fungal xanthofulvin, in vivo; cited from earlier work.
For data set [2], the system named is Sema3a^+ gain-of-function diabetic mice. As to the kind of experiment: Sema3a inhibition study: xanthofulvin subcutaneous infusion in Sema3a^+ gain-of-function diabetic mice. The class given is in vivo, mouse. As for the experimental part:
Podocin-rtTA:tet-O-Sema3a mice, herein called Sema3a^+, generated previously (Reidy et al., Development 2009;136(23):3979-3989) were maintained in FVB genetic background for >10 generations. Diabetes was induced (low dose protocol, AMDCC.org) in 6-8 weeks old male Sema3a^+ mice by 5 daily i.p. streptozotocin (STZ) (50 mg/kg) . Diabetes (random blood glucose >300 mg/dl) was confirmed using glucose oxidase biosensor blood glucose meter (One-Touch-Ultra-2; LifeScan) one week after the last STZ injection. Diabetic Sema3a^+ (DM-Sema3a^+) (n=15) and non-diabetic Sema3a^+ (non-DM-Sema3a^+) (n=18) mice were fed doxycycline-containing diet (0.625mg/kg chow, Harlan-Teklad) or standard chow for 12-16 weeks. After 12-16 weeks of diabetes, 24 h urine was collected in metabolic cages, blood and kidneys were collected under anesthesia. For Sema3a inhibition studies, DM-Sema3a^+ mice were fed doxycycline-containing chow for 8 weeks, then Alzet osmotic pumps (Model 1004) containing xanthofulvin (0.5 mg/ml in PBS) (Ieda et al., Nat Med 2007;13(5):604-612) (n=4) or saline (n=2) were implanted subcutaneously, all mice were kept on doxycycline-containing chow for the following 4 weeks.
Urinary albumin was measured using mouse albumin ELISA (Bethyl Laboratories) and SDS-PAGE/Coomassie Blue staining as described (Reidy et al., Am J Pathol 2013;183(4):1156-1168). Plasma and 24h urine creatinine were measured by HPLC. Transmission electron microscopy (TEM) was performed using standard techniques. Glomerular area was measured using ImageJ-NIH (rsb.info.nih.gov/ij/) in 34±2.1 glomeruli/kidney from 4 mice/experimental condition. A renal pathologist (G.M.) examined PAS stained kidney specimens in blinded fashion and assigned a semiquantitative pathology score based on % area (0=none;1=1-25%;2=26-50%;3=51-75%;4=76-100%) with the following features: glomerular nodules, mesangiolysis, mesangial sclerosis and interstitial fibrosis. The percentage glomeruli/section containing mesangiolysis or nodules was calculated (Veron et al., J Am Soc Nephrol. 2014;25(8):1814-1824).

Data set [3] relates to Sema3a^+ podocytes. As to the kind of experiment: Podocyte morphology assay (rhodamine-phalloidin staining, cell area morphometry). Format: cell-based. The method, then:
Sema3a^+ podocyte cell line was described previously (Reidy et al., Am J Pathol 2013;183(4):1156-1168). Sema3a^+ podocytes were exposed to RPMI 1640 medium+1%FBS, medium+0.1 μM xanthofulvin, medium+100 ng/ml rat recombinant Sema3a (Reidy et al., Development 2009;136(23):3979-3989) or medium+xanthofulvin+Sema3a for 16 h, fixed and stained with rhodamine-phalloidin. Images were acquired (Zeiss Axiovert); podocyte area (μm^2) was measured using Zeiss AxioVision software as described (Reidy et al., Am J Pathol 2013;183(4):1156-1168), n=71±4 cells/experimental condition from 3 independent experiments were measured.

The target in data set [4] is T1, Sema3a (Homo sapiens, UniProt Q14563).
T1 sequence (Q14563 21-771): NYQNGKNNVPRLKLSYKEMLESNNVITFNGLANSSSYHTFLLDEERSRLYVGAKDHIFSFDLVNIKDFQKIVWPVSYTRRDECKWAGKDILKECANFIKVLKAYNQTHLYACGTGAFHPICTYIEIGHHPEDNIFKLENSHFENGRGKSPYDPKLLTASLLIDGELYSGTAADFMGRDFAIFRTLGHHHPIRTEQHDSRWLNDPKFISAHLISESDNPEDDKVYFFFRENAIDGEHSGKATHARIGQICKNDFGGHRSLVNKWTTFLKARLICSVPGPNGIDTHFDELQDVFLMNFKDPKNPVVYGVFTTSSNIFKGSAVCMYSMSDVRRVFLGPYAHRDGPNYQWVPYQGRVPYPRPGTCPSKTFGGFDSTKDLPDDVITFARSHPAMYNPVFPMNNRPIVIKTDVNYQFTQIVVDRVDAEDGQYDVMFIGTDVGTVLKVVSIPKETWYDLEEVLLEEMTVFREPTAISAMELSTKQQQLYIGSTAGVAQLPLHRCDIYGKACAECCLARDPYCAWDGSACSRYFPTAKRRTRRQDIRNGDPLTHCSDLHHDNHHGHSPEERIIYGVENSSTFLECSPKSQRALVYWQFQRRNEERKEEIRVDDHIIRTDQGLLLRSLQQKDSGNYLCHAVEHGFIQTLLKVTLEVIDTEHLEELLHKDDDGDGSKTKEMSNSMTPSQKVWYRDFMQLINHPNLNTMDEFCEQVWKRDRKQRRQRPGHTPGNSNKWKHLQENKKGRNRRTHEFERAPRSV
Particulars: fungal and synthetic xanthofulvin, in vitro; cited from earlier work.

Data set [5] deals with podocytes. Description: Podocyte MICAL1 knockdown morphology assay. Format: cell-based. The note with it: mouse recombinant Sema3a 100 ng/ml, 6 hours. As for the experimental part:
(§1) Podocyte MICAL-1 knockdown was induced using a mouse MICAL-1 siRNA oligonucleotide ([…], SEQ ID NO: 1) (Zhou et al., Mol Cell Biol 2011;31(17):3603-3615) (Dharmacon). Briefly, podocytes were transfected with 200 pmol MICAL-1 siRNA or scrambled siRNA using Oligofectamine (Invitrogen) and incubated for 72 hours. MICAL1 knockdown was confirmed by immunoblot. Podocytes with or without MICAL1 knockdown were exposed to mouse recombinant Sema3a (100 ng/ml) for 6 hours. Podocytes were fixed, permeabilized, stained with rhodamine-phalloidin, and their morphology was analyzed as described above.

The subject of data set [6] is MICAL1. Description: Podocyte MICAL1 knockdown by siRNA, immunoblot. Format: cell-based, mouse. Particulars: 200 pmol siRNA, 72 hours, cultured podocytes, densitometry. As for the experimental part:
Equal amount of protein from ≧4 kidney lysates/experimental condition were pooled and resolved by SDS-PAGE, immunoblotting was performed using standard technique with the following primary antibodies: WT1, podocin, nephrin, laminin, Sema3a (sc-28867; Santa Cruz), β3-integrin (sc-14009; Santa Cruz), β1-integrin (AB1952; EMD-Millipore), neuropilin-1 (Kolodkin et al., Cell 1997;90:753-762; Takahashi et al., Cell 1999;99(1):59-69), MMP-2 (MAB13434; EMD-Millipore), MMP-9 (AB19016; EMD-Millipore), plexinA1 (sc-25639; Santa Cruz), VEGFR-2 (2479; Cell Signaling), MICAL1 (14818-1-AP; Proteintech); actin (A2066; Sigma) or tubulin (Sigma) were used as loading controls. Signals were detected with appropriate HRP-conjugated secondary antibodies, visualized by chemiluminescence and quantified using ImageJ.
as §1

Where [7] appears, read: constant subcutaneous infusion ~1.8 μg/d for 30 days.

Where “and” joins values, the source holds several entries; their conditions need not be identical. Equal values may be shown once. Entries after “also recorded” stand apart in the source; their conditions may differ.

On to `CC(=O)c1c(C)c(/C(O)=C2\COc3cc(O)c(O)c(C(=O)O)c3C2=O)cc2c(=O)c3c(C(=O)O)c(O)c(O)cc3oc12` [xanthofulvin], for which the “functional recovery of injured spinal cord” value in data set [1] is listed as “promotes functional recovery of injured spinal cord”. Further, in data set [2] (setting [7]), the “GBM thickness (TEM morphometry)” value is reported as “significantly decreased GBM thickness; also recorded: quite normal GBM”; the body weight result was “stable body weight”; the “creatinine clearance (renal insufficiency)” value was “abrogated renal insufficiency; also recorded: normalized”; the “diabetic glomerulosclerosis phenotype by histology and TEM” value is “markedly attenuates the diabetic glomerulosclerosis phenotype; also recorded: abrogate the diabetic nodular glomerulosclerosis; also recorded: abrogated; also recorded: mild mesangial hypercellularity and extracellular matrix expansion”. For the same compound, in data set [2] (setting [7]), the “foot process effacement / FP width (TEM morphometry)” value is reported as “significantly decreased; also recorded: focal FPE”, the “plasma albumin (hypoalbuminemia)” value is given as “corrects hypoalbuminemia; also recorded: normalized” and the side effect entry is “no apparent side effect”. In addition, in data set [2] (constant subcutaneous infusion ~1.8 μg/d for 30 days (weeks 8-12 after diabetes onset)), the albuminuria entry is listed as “significantly decreases albuminuria; also recorded: decreased albuminuria; also recorded: improved albuminuria”. The “Sema3a-induced podocyte F-actin collapse, shape change and contraction” value in data set [3] (0.1 μM xanthofulvin, 100 ng/ml rat recombinant Sema3a, synthetic xanthofulvin) was “prevented Sema3a-induced podocyte F-actin collapse, shape change and contraction; also recorded: abrogates Sema3a-induced podocyte contraction in vitro; also recorded: abrogates Sema3a-induced podocyte F-actin collapse in vitro; also recorded: abrogates Sema3a-induced podocyte F-actin collapse, shape change and contraction”. In addition, the “deleterious effects in cultured podocytes” value in data set [3] (cultured podocytes) is on record as “no deleterious effects in cultured podocytes”. Further, in data set [4], the “Sema3a-induced growth cone collapse” value was “prevent Sema3a-induced growth cone collapse in vitro”.

As for “siRNA: mouse MICAL-1 siRNA oligonucleotide (CAGGUGCCAUGACUAAGUAUU, SEQ ID NO: 1) (listed as RNA, chemistry not given here; listed as Mus musculus)”, the “Sema3a-induced podocyte contraction and F-actin collapse after MICAL1 knockdown” value in data set [5] is “not susceptible to Sema3a-induced contraction; also recorded: prevents Sema3a-induced podocyte contraction and F-actin collapse”. The “decrease of MICAL1 expression (knockdown)” value in data set [6] is 73±2.6% and ~75%.
